Measurements taken from US20080031893A1 (Metaproteomics, LLC, priority 2006, published 2008).
Marks after values point to notes of the source that are not given here.

How the values were obtained:
3T3-L1 adipocytes [1] = experiment: IL-6 secretion in LPS/3T3-L1 adipocytes; assay type: cell-based, murine; settings: 100 ng LPS/ml
3T3-L1 adipocytes [2] = experiment: Adiponectin secretion in LPS/3T3-L1 adipocytes; assay type: cell-based, murine; settings: for % Stimulation (maximum) of adiponectin secretion: 0.625 μg/ml; for adiponectin secretion: LPS, any dose tested
3T3-L1 adipocytes [3] = experiment: Adiponectin secretion from insulin-resistant 3T3-L1 adipocytes; assay type: cell-based, murine
Procedure: 3T3-L1 cells were seeded at an initial density of 1×10^4 cells/cm^2 in 96-well plates. For two days, the cells were allowed grow to reach confluence. Following confluence, the cells were forced to differentiate into adipocytes by the addition of differentiation medium; this medium consisted of (1) 10% FBS/DMEM (high glucose); (2) 0.5 mM methylisobutylxanthine; (3) 0.5 μM dexamethasone and (4) 10 μg/ml insulin (MDI medium). From Day 3 through Day 5, the medium was changed to post-differentiation medium consisting of 10 μg/ml insulin in 10% FBS/DMEM.
Briefly, on Day 6, cells were maintained in serum-free media containing 0.5% bovine serum albumin (BSA) for three hours and then treated with 1 μg insulin/ml plus solvent or insulin plus test material. […] Twenty-four hours later, the supernatant medium was sampled for adiponectin determination.
Adiponectin Assay—The adiponectin secreted into the medium was quantified using the Mouse Adiponectin Quantikine® Immunoassay kit with no modifications (R&D Systems, Minneapolis, Minn.).
Statistical Calculations and Interpretation—All assays were preformed in duplicate. […] Differences between the doses were determined using the student's t-test without correction for multiple comparisons; the nominal five percent probability of a type I error was selected. […]

3T3-L1 adipocytes [4] = experiment: Lipogenesis in 3T3-L1 adipocytes (Oil Red O / BODIPY); assay type: cell-based, murine; settings: for adipogenic response of hops compounds: 10, 5, 4 or 2 μg/ml, spent hops 50 μg/ml
Procedure: Prior to experiments, cells were cultured in DMEM containing 10% FBS-HI added 50 units penicillin/ml and 50 μg streptomycin/ml, and maintained in log phase prior to experimental setup. Cells were grown in a 5% CO2 humidified incubator at 37° C. Components of the pre-confluent medium included (1) 10% FBS/DMEM containing 4.5 g glucose/L; (2) 50 U/ml penicillin; and (3) 50 μg/ml streptomycin. Growth medium was made by adding 50 ml of heat inactivated FBS and 5 ml of penicillin/streptomycin to 500 ml DMEM. This medium was stored at 4° C. Before use, the medium was warmed to 37° C. in a water bath.
3T3-T1 cells were seeded at an initial density of 6×10^4 cells/cm^2 in 24-well plates. For two days, the cells were allowed grow to reach confluence. Following confluence, the cells were forced to differentiate into adipocytes by the addition of differentiation medium; this medium consisted of (1) 10% FBS/DMEM (high glucose); (2) 0.5 mM methylisobutylxanthine; (3) 0.5 μM dexamethasone and (4) 10 μg/ml insulin (MDI medium). After three days, the medium was changed to post-differentiation medium consisting of 10 μg/ml insulin in 10% FBS/DMEM.
AcE was partially dissolved in dimethyl sulfoxide (DMSO) and added to the culture medium to achieve a concentration of 50 μg/ml at Day 0 of differentiation and throughout the maturation phase (Days 6 or 7 (D6/7)). Whenever fresh media were added, fresh test material was also added. DMSO was chosen for its polarity and the fact that it is miscible with the aqueous cell culture media.
Oil Red O Staining—Triglyceride content of D6/D7-differentiated 3T3-L1 cells was estimated with Oil Red O according to the method of Kasturi and Joshi [Kasturi, R. and Joshi, V. C. […] Monolayer cells were washed with PBS (phosphate buffered saline, Mediatech) and fixed with 10% formaldehyde for ten minutes. Fixed cells were stained with an Oil Red O working solution of three parts 0.6% Oil Red O/isopropanol stock solution and two parts water for one hour and the excess stain was washed once with water. The resulting stained oil droplets were extracted from the cells with isopropanol and quantified by spectrophotometric analysis at 540 nm (MEL312e BIO-KINETICS READER, Bio-Tek Instruments, Winooski, Vt.).
Briefly, media were removed and cells were washed once with non-sterile PBS. A stock 1000× BODIPY/DMSO solution was made by dissolving 1 mg BODIPY in 1 ml DMSO (1,000 μg BODIPY/ml). […] After 15 min on an orbital shaker (DS-500, VWR Scientific Products, South Plainfield, N.J.) at ambient temperature, the cells were washed with 100 μl PBS followed by the addition of 100 μl PBS for reading for spectrofluorometric determination of BODIPY incorporation into the cells. […]

PI3K gamma = PI3K gamma (Homo sapiens, UniProt P48736); experiment: KinaseProfiler Assay; assay type: biochemical; settings: 50 μg/ml
Sequence of PI3K gamma (P48736 whole entry): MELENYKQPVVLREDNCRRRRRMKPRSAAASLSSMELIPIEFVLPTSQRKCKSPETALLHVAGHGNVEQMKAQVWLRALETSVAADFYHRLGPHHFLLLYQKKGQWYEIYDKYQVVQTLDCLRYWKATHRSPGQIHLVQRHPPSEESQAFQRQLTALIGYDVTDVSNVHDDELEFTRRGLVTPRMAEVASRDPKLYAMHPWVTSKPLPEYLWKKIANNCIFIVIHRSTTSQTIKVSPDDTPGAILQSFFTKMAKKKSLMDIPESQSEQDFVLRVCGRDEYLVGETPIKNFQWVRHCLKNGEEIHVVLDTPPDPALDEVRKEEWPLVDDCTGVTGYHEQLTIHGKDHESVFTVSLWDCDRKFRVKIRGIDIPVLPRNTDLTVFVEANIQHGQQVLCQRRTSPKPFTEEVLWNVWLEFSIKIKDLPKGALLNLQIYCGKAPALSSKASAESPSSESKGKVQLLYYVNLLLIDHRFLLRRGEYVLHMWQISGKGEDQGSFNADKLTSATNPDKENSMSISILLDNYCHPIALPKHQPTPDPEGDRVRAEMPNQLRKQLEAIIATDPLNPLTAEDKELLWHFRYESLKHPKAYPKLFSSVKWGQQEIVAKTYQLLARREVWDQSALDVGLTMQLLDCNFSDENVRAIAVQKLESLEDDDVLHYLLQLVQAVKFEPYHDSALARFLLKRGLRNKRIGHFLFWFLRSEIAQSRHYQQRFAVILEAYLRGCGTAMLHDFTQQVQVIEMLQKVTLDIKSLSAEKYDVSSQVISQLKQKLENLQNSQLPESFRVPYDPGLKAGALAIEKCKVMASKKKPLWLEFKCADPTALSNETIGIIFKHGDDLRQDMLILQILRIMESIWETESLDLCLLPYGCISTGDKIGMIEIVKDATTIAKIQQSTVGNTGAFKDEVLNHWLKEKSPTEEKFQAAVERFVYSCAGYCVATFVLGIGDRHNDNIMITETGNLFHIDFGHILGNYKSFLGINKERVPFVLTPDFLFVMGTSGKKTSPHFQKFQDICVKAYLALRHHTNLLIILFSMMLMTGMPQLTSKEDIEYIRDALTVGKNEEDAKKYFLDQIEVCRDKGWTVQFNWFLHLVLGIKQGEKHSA

[5] = system: A549 pulmonary epithelial cells; experiment: PGE2 biosynthesis in A549 cells stimulated by mite dust allergen; assay type: cell-based, human; settings: 10 μg/ml, mite allergen 1000 ng/ml, 18 h
Procedure: The filtrate was termed mite dust allergen and used to test for induction of PGE2 biosynthesis in A549 pulmonary epithelial cells.
Mite allergen was added to the culture medium to achieve a final concentration of 1000 ng/ml. Eighteen hours later, the media were sampled for PGE2 determination.

NF-kBp65 = experiment: Nuclear translocation of NF-kBp65 in TNFα-treated 3T3-L1 adipocytes; assay type: cell-based, murine; settings: three or 24 hours following TNFα
Procedure: Cell Culture and Treatment—Following differentiation 3T3-L1 adipocytes were maintained in post-differentiation medium for an additional 40 days. […] Hops derivatives and the positive control pioglitazone were tested at concentrations of 2.5, and 5.0 μg/ml. Test materials were added 1 hour prior to and nuclear extracts were prepared three and 24 hours following treatment with TNFα.
ELISA—3T3-L1 adipocytes were maintained in growth media for 40 days following differentiation. Nuclear NF-kBp65 was determined using the TransAM™ NF-kB kit from Active Motif (Carlsbad, Calif.) was used with no modifications. Jurkat nuclear extracts provided in the kit were derived from cells cultured in medium supplemented with 50 ng/ml TPA (phorbol, 12-myristate, 13 acetate) and 0.5 μM calcium ionophore A23187 for two hours at 37° C. immediately prior to harvesting.
Protein assay—Nuclear protein was quantified using the Active Motif Fluorescent Protein Quantification Kit.
Statistical Analysis—Comparisons were performed using a one-tailed Student's t-test. The probability of a type I error was set at the nominal five percent level.

3T3-L1 adipocytes [6] = experiment: Adiponectin secretion from TNFα-treated 3T3-L1 adipocytes; assay type: cell-based, murine
Procedure: For two days, the cells were allowed grow to reach confluence. […] (3) 0.5 μM dexamethasone and (4) 10 μg/ml insulin (MDI medium). […] Adiponectin Assay—The adiponectin secreted into the medium was quantified using the Mouse Adiponectin Quantikine® Immunoassay kit with no modifications (R&D Systems, Minneapolis, Minn.). […] Statistical Calculations and Interpretation—All assays were preformed in duplicate. […] Differences among the doses and test agents were determined using the Student's t-test without correction for multiple comparisons; the nominal five percent probability of a type I error was selected.

[7] = Non-fasting serum glucose and insulin in db/db diabetic mice; assay type: in vivo, mouse; settings: three consecutive days, gavage
Procedure: The Model—Male, C57BLKS/J m^+/m^+Lepr^db (db/db) mice were used to assess the potential of the test materials to reduce fasting serum glucose or insulin concentrations. This strain of mice is resistant to leptin by virtue of the absence of a functioning leptin receptor.
Testing Procedure—Test substances were administered daily by gavage in 0.2% Tween-80. Serum was collected from the retroorbital sinus before the initial dose and ninety minutes after the third and final dose. Non-fasting serum glucose was determined enzymatically by the mutarotase/glucose oxidase method and serum insulin was determined by a mouse specific ELISA.
The Model—Male, C57BLKS/J m+/m+ Leprdb (db/db) mice were used to assess the potential of the test materials to reduce fasting serum glucose or insulin concentrations. This strain of mice is resistant to leptin by virtue of the absence of a functioning leptin receptor.
Testing Procedure—Test substances were administered daily by gavage in 0.2% Tween-80. Serum was collected from the retroorbital sinus before the initial dose and ninety minutes after the fifth and final dose. Non-fasting serum glucose was determined enzymatically by the mutarotase/glucose oxidase method and serum insulin was determined by a mouse specific ELISA.

3T3-L1 adipocytes [8] = experiment: IL-6 secretion from TNFα-treated 3T3-L1 adipocytes; assay type: cell-based, murine; settings: 10 ng TNFα/ml
Procedure: Interleukin-6 Assay—The IL-6 secreted into the medium was quantified using the Quantikine® Mouse IL-6 Immunoassay kit with no modifications (R&D Systems, Minneapolis, Minn.). […] All supernatant media samples were assayed undiluted.
Statistical Calculations and Interpretation—All assays were preformed in duplicate. […] Differences among the doses were determined using the student's t-test without correction for multiple comparisons; the nominal five percent probability of a type I error (one-tail) was selected.

[9] = 10 ng TNFα/ml, listed as indomethacin

CC(C)Cc1ccc(C(C)C(=O)O)cc1 (stereo not shown) [ibuprofen]
inhibition at 0.625 µg/mL (3T3-L1 adipocytes [1]; Mus musculus, 3T3-L1, 0.625 μg/ml, read-out: % Inhibition (maximum) of IL-6 secretion): 54%
% Stimulation (maximum) of adiponectin secretion (3T3-L1 adipocytes [2]): 22%

CC(C)CCC1=C(O)C(C(=O)C(C)C)=C(O)C(CCC(C)C)(CCC(C)C)C1=O [Hexahydrocolupulone (HHCL)]
Adiponectin/IL-6 (3T3-L1 adipocytes [3]; 50.0 μg/ml, ratio of indices): 0.60#

COc1cc(O)c(CC=C(C)C)c(O)c1C(=O)/C=C/c1ccc(O)cc1 [xanthohumol]
adipogenic response of hops compounds (3T3-L1 adipocytes [4]): comparable to indomethacin and troglitazone
PI3K isoform preference (PI3K gamma): more inhibitory to PI3K-γ than to PI3K-β or PI3K-δ

Beta acids
adipogenic response of hops compounds (3T3-L1 adipocytes [4]): comparable to indomethacin and troglitazone
Percent PGE2 Inhibition [5]: 83%

CC(C)CCC1=C(O)C(C(=O)C(C)C)=C(O)C(CCC(C)C)(CCC(C)C)C1=O [hexahydrocolupulone]
adipogenic response of hops compounds (3T3-L1 adipocytes [4]): failed to elicit a lipogenic response greater than the solvent controls
concentration for half maximal adiponectin secretion (3T3-L1 adipocytes [3]; Hofstee plot): 3.2 µg/mL

CCc1ccc(CCOc2ccc(CC3SC(=O)NC3=O)cc2)nc1 (stereo not shown) [Pioglitazone]
IL-6 Index (3T3-L1 adipocytes [1]; 5.00 μg/ml (dose providing maximum inhibition)): 0.37*
inhibition at 5 µg/mL (3T3-L1 adipocytes [1]; Mus musculus, 3T3-L1, 5.00 μg/ml, read-out: % Inhibition (maximum) of IL-6 secretion): 63%
nuclear NF-kBp65 (NF-kBp65): did not inhibit
maximum increase of adiponectin secretion from TNFα solvent control (3T3-L1 adipocytes [6]; 10 ng TNFα/ml): 80%
Adiponectin Index (maximum over four doses) (3T3-L1 adipocytes [6]; 10 ng TNFα/ml, Example 17): 1.47
Adiponectin Index Observed (3T3-L1 adipocytes [6]; 1.0 μg/ml, indexed to TNFα control): 1.80

Cc1c(C)c2c(c(C)c1O)CCC(C)(COc1ccc(CC3SC(=O)NC3=O)cc1)O2 (stereo not shown) [Troglitazone]
inhibition at 10 µg/mL (3T3-L1 adipocytes [1]; Mus musculus, 3T3-L1, 10.0 μg/ml, read-out: % Inhibition (maximum) of IL-6 secretion): 69%
% Stimulation (maximum) of adiponectin secretion (3T3-L1 adipocytes [2]): 15%
maximum increase of adiponectin secretion from TNFα solvent control (3T3-L1 adipocytes [6]; 10 ng TNFα/ml): 51%

CN(C)C(=N)N=C(N)N [metformin, Metformin]
serum glucose relative to controls [7]: decreased both serum glucose and insulin concentrations
lipogenic index (3T3-L1 adipocytes [4]; 50 μg test material/ml, observed): 0.79

CC(=O)Oc1ccccc1C(=O)O [Aspirin]
adiponectin secretion (3T3-L1 adipocytes [2]): failed to induce adiponectin secretion

O=C(O)c1ccccc1O [salicylic acid]
IL-6 Index (3T3-L1 adipocytes [1]; 50.0 μg/ml (dose providing maximum inhibition)): 0.52*
inhibition at 50 µg/mL (3T3-L1 adipocytes [1]; Mus musculus, 3T3-L1, 50.0 μg/ml, read-out: % Inhibition (maximum) of IL-6 secretion): 48%
adiponectin secretion (3T3-L1 adipocytes [2]): failed to induce adiponectin secretion

COc1ccc2c(c1)c(CC(=O)O)c(C)n2C(=O)c1ccc(Cl)cc1 [Indomethacin, indomethacin]
% Inhibition (maximum) of IL-6 secretion (3T3-L1 adipocytes [1]; 5.00 μg/ml): 53* %
IL-6 secretion in the presence of TNFα (3T3-L1 adipocytes [8]): no anti-inflammatory effect
adiponectin secretion (3T3-L1 adipocytes [6]; 0.5 ng TNFα/ml, 50 μg/ml): dose-dependant decrease in adiponectin secretion
Concentration of maximum adiponectin secretion (3T3-L1 adipocytes [6]; 10 ng TNFα/ml): 5.0 µg/mL
Concentration of maximum adiponectin secretion (3T3-L1 adipocytes [6]; [9]): 2.5 µg/mL
maximum increase of adiponectin secretion from TNFα solvent control (3T3-L1 adipocytes [6]; [9]): 94%
Adiponectin/IL-6 (3T3-L1 adipocytes [6]; […], 10 ng TNFα/ml): 2.00*
